Reference: patent US20230348462A1, “IMIDAZO[4,5-C]QUINOLINE COMPOUNDS AND THEIR USE AS ATM KINASE INHIBITORS” (Deutsches Krebsforschungszentrum, priority 2020, published 2023)

What was measured:
human ATM = human ATM (Homo sapiens (Human), UniProt Q13315); test: Enzymatic ATM assay (RBC FRET enzyme assay); type: biochemical; conditions: substrate p53, 5-point dilution starting at 10 μM
Experimental: The inhibitory activity on the isolated ATM kinase was determined by a commercial supplier (Reaction Biology Corp., PA, US) using an activity based FRET assay. Compounds were therefore first pre-incubated with human ATM before substrate (p53) and ATP were added to initiate the phosphorylation reaction. After a given time, the kinase reaction was stopped and the amount of phosphorylated substrate was quantified using standard FRET detection methods. […] Detailed assay conditions and parameters can be requested from the commercial supplier.

[1] = tested on: kras^G12D; mycOE; p53^−/− murine pancreatic cancer cells (KMP53); test: KMP53 cell assay (XTT cell viability with Etoposide); type: cell-based; conditions: Mus musculus, 4 h pre-treatment, then 300 nM Etoposide, 46 h
Excerpt: (§1) A selection of compounds was screened in a cellular assay system in two different cancer cell lines. Therefore, the cells were challenged with a generally non-cytotoxic concentration of Etoposid to induce DNA double strand breaks and the activation of the ATM pathway. The cells were further treated with different concentrations of the final compounds and viability of the cells was quantified using a standard XTT cell viability protocol. The principle of this assay lies in the fact that only alive and thus metabolically active cells are able to catalyze the reduction of XTT ((2,3-bis-(2-methoxy-4-nitro-5-sulfophenyl)-2H-tetrazolium-5-carboxanilide) by NADH from mitochondria, into formazan. The formazan product can be then detected using an absorbance-based microplate reader. The absorbance intensity measured in each well correlates to cell viability.
(§2) In brief, kras^G12D; mycOE; p53^−/− murine pancreatic cancer cells (KMP53) and Panc-1 human pancreatic ductal carcinoma cells were seeded in 96-well plates and left to attach overnight. The following day, cells were treated with serial dilutions of compound or DMSO in triplicates. The cells were first pre-treated for 4 hours with inhibitor and then 300 nM of Etoposide was added to each well. Cells were then grown under normal conditions (37° C., 95% air, 5% CO2) for 46 h. Following the incubation period, XTT solution was added to the cells containing 1 mg/ml XTT and 25 μM phenazine methosulfate (PMS) diluted in full culture medium. Cells were incubated in normal conditions for two more hours. For the determination of cell viability, absorbance at 450 nm was measured for each well. Absorbance values were then normalized to DMSO control and expressed as percentages of viability. Using software GraphPad Prism, the values were fitted in a nonlinear response curve and the IC50 values were calculated.

Solubility in DMSO = type: physicochemical; conditions: organic solvent or mixture, free base
Experimental: In a screw-top reaction vial, 41 mg (25) (0.1 mmol) and 1 mg tBu3P Pd G3 (1.5 mol %) were suspended in 2.4 ml degassed dioxane under argon atmosphere. Subsequently were added 40 mg (27) (0.14 mmol) as solution in dioxane and 0.6 ml of an aqueous 0.5M K3PO4 solution (0.3 mmol) via syringe. The reaction vial was sealed and heated to 50° C. heating block temperature for about 2 hours. TLC indicated complete conversion at that point and the reaction was quenched by dilution with EtOAc and brine. The phases were separated and the aqueous phase was further extracted with EtOAc (3×15 ml) and subsequently with DCM (4×15 ml). The combined extracts were washed with brine, dried and evaporated. The residue was purified via flash chromatography (DCM/MeOH+2N NH3 2-10%) to obtain 36 mg (74%) of the title substance as white solid. […] Therefore, it was converted to the HCl salt by dissolution in DCM/MeOH, acidification with HCl in EtOH and subsequent concentration of the solution. […]

[2] = tested on: Panc-1 human pancreatic ductal carcinoma cells; test: Panc1 cell assay (XTT cell viability with Etoposide); type: cell-based; conditions: 4 h pre-treatment, then 300 nM Etoposide, 46 h
Excerpt: as §1, §2

Sequence of human ATM (Q13315 whole entry): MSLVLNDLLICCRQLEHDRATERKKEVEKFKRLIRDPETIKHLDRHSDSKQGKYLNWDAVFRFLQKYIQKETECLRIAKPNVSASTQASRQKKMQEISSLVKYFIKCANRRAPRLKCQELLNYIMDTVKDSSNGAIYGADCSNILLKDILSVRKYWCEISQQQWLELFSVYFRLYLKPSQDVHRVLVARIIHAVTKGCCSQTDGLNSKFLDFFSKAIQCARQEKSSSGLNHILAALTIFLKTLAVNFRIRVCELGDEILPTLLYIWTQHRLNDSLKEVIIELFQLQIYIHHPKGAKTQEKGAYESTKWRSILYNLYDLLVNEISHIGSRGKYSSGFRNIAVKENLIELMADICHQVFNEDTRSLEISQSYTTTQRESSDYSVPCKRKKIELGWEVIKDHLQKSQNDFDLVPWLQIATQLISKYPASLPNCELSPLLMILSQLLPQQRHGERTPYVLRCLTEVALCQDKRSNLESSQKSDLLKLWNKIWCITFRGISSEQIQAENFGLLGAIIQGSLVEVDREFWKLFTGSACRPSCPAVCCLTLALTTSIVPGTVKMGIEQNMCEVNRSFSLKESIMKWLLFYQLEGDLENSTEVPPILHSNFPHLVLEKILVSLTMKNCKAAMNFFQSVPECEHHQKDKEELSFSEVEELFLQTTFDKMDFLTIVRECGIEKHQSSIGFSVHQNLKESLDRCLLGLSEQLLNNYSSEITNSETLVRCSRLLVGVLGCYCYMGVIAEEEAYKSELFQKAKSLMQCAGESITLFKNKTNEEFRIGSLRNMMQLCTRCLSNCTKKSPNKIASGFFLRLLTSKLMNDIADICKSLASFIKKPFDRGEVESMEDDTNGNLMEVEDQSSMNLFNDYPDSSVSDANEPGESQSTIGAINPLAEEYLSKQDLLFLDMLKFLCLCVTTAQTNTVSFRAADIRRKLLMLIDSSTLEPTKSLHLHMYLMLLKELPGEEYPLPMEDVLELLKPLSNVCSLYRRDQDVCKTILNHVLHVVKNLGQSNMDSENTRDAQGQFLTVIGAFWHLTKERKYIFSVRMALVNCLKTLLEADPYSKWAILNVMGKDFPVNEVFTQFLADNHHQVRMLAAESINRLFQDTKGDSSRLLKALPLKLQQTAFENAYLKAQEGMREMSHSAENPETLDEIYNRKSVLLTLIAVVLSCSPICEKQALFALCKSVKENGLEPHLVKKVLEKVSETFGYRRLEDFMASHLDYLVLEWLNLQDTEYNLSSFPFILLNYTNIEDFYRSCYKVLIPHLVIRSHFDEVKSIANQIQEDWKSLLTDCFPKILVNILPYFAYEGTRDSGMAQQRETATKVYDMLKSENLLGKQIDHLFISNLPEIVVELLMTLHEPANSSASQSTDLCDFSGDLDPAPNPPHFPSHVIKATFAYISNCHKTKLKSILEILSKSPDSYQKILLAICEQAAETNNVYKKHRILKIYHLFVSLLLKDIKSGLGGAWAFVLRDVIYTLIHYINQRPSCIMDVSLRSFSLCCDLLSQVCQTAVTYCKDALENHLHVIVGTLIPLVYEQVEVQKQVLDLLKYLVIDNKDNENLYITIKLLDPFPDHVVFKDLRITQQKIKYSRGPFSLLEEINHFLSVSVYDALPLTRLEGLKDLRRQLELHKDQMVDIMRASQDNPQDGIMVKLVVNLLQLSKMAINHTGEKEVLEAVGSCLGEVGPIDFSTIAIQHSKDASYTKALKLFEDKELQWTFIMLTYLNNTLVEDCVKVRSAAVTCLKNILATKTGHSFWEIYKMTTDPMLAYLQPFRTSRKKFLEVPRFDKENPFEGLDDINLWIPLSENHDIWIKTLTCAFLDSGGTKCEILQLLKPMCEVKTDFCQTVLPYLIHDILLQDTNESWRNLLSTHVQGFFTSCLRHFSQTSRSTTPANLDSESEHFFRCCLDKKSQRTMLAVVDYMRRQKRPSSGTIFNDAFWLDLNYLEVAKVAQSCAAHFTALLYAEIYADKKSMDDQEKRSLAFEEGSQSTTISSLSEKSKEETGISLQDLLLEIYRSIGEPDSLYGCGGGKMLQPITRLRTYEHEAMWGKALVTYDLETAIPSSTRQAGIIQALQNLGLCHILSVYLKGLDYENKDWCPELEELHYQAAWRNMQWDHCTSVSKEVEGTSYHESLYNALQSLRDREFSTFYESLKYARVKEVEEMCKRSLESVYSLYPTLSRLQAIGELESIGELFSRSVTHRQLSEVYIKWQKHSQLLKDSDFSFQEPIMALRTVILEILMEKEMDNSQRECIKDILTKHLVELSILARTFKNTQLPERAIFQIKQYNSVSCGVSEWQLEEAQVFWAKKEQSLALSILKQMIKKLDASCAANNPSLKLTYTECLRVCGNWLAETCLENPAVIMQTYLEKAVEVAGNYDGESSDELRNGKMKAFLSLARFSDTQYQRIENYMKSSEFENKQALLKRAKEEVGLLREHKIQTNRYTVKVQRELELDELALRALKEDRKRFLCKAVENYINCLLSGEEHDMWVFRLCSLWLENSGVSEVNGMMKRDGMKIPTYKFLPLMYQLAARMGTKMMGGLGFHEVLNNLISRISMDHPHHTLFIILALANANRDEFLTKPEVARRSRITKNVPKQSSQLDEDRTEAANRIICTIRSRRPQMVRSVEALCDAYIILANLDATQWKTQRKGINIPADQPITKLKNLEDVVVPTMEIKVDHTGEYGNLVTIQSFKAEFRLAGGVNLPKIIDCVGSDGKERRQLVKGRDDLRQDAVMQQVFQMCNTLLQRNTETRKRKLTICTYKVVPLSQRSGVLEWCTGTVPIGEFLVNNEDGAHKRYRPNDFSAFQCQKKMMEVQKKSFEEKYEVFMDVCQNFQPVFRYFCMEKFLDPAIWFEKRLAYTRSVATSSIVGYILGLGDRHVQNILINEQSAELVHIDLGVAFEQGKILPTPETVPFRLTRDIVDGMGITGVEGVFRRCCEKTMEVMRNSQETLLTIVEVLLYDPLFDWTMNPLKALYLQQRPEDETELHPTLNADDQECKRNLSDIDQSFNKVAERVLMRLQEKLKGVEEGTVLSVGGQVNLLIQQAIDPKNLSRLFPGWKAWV

Row | IC50 (human ATM) [nM] | IC50 [1] [nM] | solubility (Solubility in DMSO) [mM] | IC50 [2] [nM] | SMILES
1 | < 1 | 2500 | < 10 | – | CN(C)CCNC(=O)Nc1ccc(-c2ccc3ncc4c(c3c2)n(C2CCOCC2)c(=O)n4C)cn1 [Ex. 7, 1-(2-(Dimethylamino)ethyl)-3-(5-(3-methyl-2-oxo-1-(tetrahydro-2H-pyran-4-yl)-2,3-dihydro-H-imidazo[4,5-c]quinolin-8-yl)pyridin-2-yl)urea]
2 | < 1 | 2000 | – | 1 | COCCn1c(=O)n(C)c2cnc3ccc(-c4ccc(NC(=O)NCCN(C)C)c(F)c4)cc3c21 [Ex. 28, 1-(2-(Dimethylamino)ethyl)-3-(2-fluoro-4-(1-(2-methoxyethyl)-3-methyl-2-oxo-2,3-dihydro-1H-imidazo[4,5-c]quinolin-8-yl)phenyl)urea]
